Consider nine compounds from patent publication US10206394B2, “Herbicidal compounds” (Syngenta Participations AG, priority 2014, dated 2019).

Each structure is given as a SMILES string. Like-named read-outs stand apart in the source and are kept apart here.

What all share (test): Glasshouse assay for herbicidal activity (pre- and post-emergence), percentage phytotoxicity
What all share (type): in vivo

Assay [1] has as its system Alopecurus myosuroides (ALOMY). Conditions: Alopecurus myosuroides. The gist of the method: (§1)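 Herbicide was applied to potted plants sown in standard soil, one day after sowing for PRE and after about 12 days for POST. Visual percentage damage ratings followed at 15 DAA (POST) and 20 DAA (PRE).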
A further assay deals with Avena fatua (AVEFA). The following applies: Avena fatua. The gist of the method: as §1
In assay [2] the test system is Echinochloa crus-galli (ECHCG). The following applies: Echinochloa crus-galli. The essentials:
as §1

The next assay concerns Lolium perenne (LOLPE). Conditions: Lolium perenne. The essentials: as §1
[3] abbreviates: post-emergence, 360 h, Rate 250 g/ha, post-emergence, visual assessment 15 DAA, 100%=total damage, 0%=no damage, read-out: Post-emergence herbicidal activity (percentage phytotoxicity) ALOMY POST.
The mark [4] stands for this setting: pre-emergence, 480 h, Rate 250 g/ha, pre-emergence, visual assessment 20 DAA, 100%=total damage, 0%=no damage, read-out: Pre-emergence herbicidal activity (percentage phytotoxicity) ALOMY PRE.
The mark [5] stands for this setting: post-emergence, 360 h, Rate 250 g/ha, post-emergence, visual assessment 15 DAA, 100%=total damage, 0%=no damage, read-out: Post-emergence herbicidal activity (percentage phytotoxicity) AVEFA POST.
Setting [6] is: pre-emergence, 480 h, Rate 250 g/ha, pre-emergence, visual assessment 20 DAA, 100%=total damage, 0%=no damage, read-out: Pre-emergence herbicidal activity (percentage phytotoxicity) AVEFA PRE.
Where [7] appears, read: post-emergence, 360 h, Rate 250 g/ha, post-emergence, visual assessment 15 DAA, 100%=total damage, 0%=no damage, read-out: Post-emergence herbicidal activity (percentage phytotoxicity) ECHCG POST.
[8] abbreviates: pre-emergence, 480 h, Rate 250 g/ha, pre-emergence, visual assessment 20 DAA, 100%=total damage, 0%=no damage, read-out: Pre-emergence herbicidal activity (percentage phytotoxicity) ECHCG PRE.
Setting [9] is: post-emergence, 360 h, Rate 250 g/ha, post-emergence, visual assessment 15 DAA, 100%=total damage, 0%=no damage, read-out: Post-emergence herbicidal activity (percentage phytotoxicity) LOLPE POST.
The mark [10] stands for this setting: pre-emergence, 480 h, Rate 250 g/ha, pre-emergence, visual assessment 20 DAA, 100%=total damage, 0%=no damage, read-out: Pre-emergence herbicidal activity (percentage phytotoxicity) LOLPE PRE.
The mark [11] stands for this setting: post-emergence, 360 h, 250 g/ha, post-emergence, 15 DAA, visual assessment (100%=total damage, 0%=no damage), read-out: Post-emergence herbicidal activity (percentage phytotoxicity) ALOMY POST.
Setting [12] is: pre-emergence, 480 h, 250 g/ha, pre-emergence, 20 DAA, visual assessment (100%=total damage, 0%=no damage), read-out: Pre-emergence herbicidal activity (percentage phytotoxicity) ALOMY PRE.
Setting [13] is: post-emergence, 360 h, 250 g/ha, post-emergence, 15 DAA, visual assessment (100%=total damage, 0%=no damage), read-out: Post-emergence herbicidal activity (percentage phytotoxicity) AVEFA POST.
Setting [14] is: pre-emergence, 480 h, 250 g/ha, pre-emergence, 20 DAA, visual assessment (100%=total damage, 0%=no damage), read-out: Pre-emergence herbicidal activity (percentage phytotoxicity) AVEFA PRE.
The mark [15] stands for this setting: post-emergence, 360 h, 250 g/ha, post-emergence, 15 DAA, visual assessment (100%=total damage, 0%=no damage), read-out: Post-emergence herbicidal activity (percentage phytotoxicity) ECHCG POST.
The mark [16] stands for this setting: pre-emergence, 480 h, 250 g/ha, pre-emergence, 20 DAA, visual assessment (100%=total damage, 0%=no damage), read-out: Pre-emergence herbicidal activity (percentage phytotoxicity) ECHCG PRE.
Where [17] appears, read: post-emergence, 360 h, 250 g/ha, post-emergence, 15 DAA, visual assessment (100%=total damage, 0%=no damage), read-out: Post-emergence herbicidal activity (percentage phytotoxicity) LOLPE POST.
[18] abbreviates: pre-emergence, 480 h, 250 g/ha, pre-emergence, 20 DAA, visual assessment (100%=total damage, 0%=no damage), read-out: Pre-emergence herbicidal activity (percentage phytotoxicity) LOLPE PRE.
Where [19] appears, read: post-emergence, 360 h, POST-emergence, rate 250 g/ha, visual score 15 DAA (100%=total damage, 0%=no damage), read-out: Post-emergence herbicidal activity (percentage phytotoxicity) ALOMY POST.
The mark [20] stands for this setting: pre-emergence, 480 h, PRE-emergence, rate 250 g/ha, visual score 20 DAA (100%=total damage, 0%=no damage), read-out: Pre-emergence herbicidal activity (percentage phytotoxicity) ALOMY PRE.
The mark [21] stands for this setting: post-emergence, 360 h, POST-emergence, rate 250 g/ha, visual score 15 DAA (100%=total damage, 0%=no damage), read-out: Post-emergence herbicidal activity (percentage phytotoxicity) AVEFA POST.
The mark [22] stands for this setting: pre-emergence, 480 h, PRE-emergence, rate 250 g/ha, visual score 20 DAA (100%=total damage, 0%=no damage), read-out: Pre-emergence herbicidal activity (percentage phytotoxicity) AVEFA PRE.
Setting [23] is: post-emergence, 360 h, POST-emergence, rate 250 g/ha, visual score 15 DAA (100%=total damage, 0%=no damage), read-out: Post-emergence herbicidal activity (percentage phytotoxicity) ECHCG POST.
The mark [24] stands for this setting: pre-emergence, 480 h, PRE-emergence, rate 250 g/ha, visual score 20 DAA (100%=total damage, 0%=no damage), read-out: Pre-emergence herbicidal activity (percentage phytotoxicity) ECHCG PRE.
[25] abbreviates: post-emergence, 360 h, POST-emergence, rate 250 g/ha, visual score 15 DAA (100%=total damage, 0%=no damage), read-out: Post-emergence herbicidal activity (percentage phytotoxicity) LOLPE POST.
Where [26] appears, read: pre-emergence, 480 h, PRE-emergence, rate 250 g/ha, visual score 20 DAA (100%=total damage, 0%=no damage), read-out: Pre-emergence herbicidal activity (percentage phytotoxicity) LOLPE PRE.
[27] abbreviates: post-emergence, 360 h, post-emergence, 250 g/ha, 15 DAA, visual score (100%=total damage; 0%=no damage), read-out: ALOMY POST herbicidal activity (percentage phytotoxicity).
Setting [28] is: pre-emergence, 480 h, pre-emergence, 250 g/ha, 20 DAA, visual score (100%=total damage; 0%=no damage), read-out: ALOMY PRE herbicidal activity (percentage phytotoxicity).
Setting [29] is: post-emergence, 360 h, post-emergence, 250 g/ha, 15 DAA, visual score (100%=total damage; 0%=no damage), read-out: AVEFA POST herbicidal activity (percentage phytotoxicity).
Setting [30] is: pre-emergence, 480 h, pre-emergence, 250 g/ha, 20 DAA, visual score (100%=total damage; 0%=no damage), read-out: AVEFA PRE herbicidal activity (percentage phytotoxicity).
Where [31] appears, read: post-emergence, 360 h, post-emergence, 250 g/ha, 15 DAA, visual score (100%=total damage; 0%=no damage), read-out: ECHCG POST herbicidal activity (percentage phytotoxicity).
Setting [32] is: pre-emergence, 480 h, pre-emergence, 250 g/ha, 20 DAA, visual score (100%=total damage; 0%=no damage), read-out: ECHCG PRE herbicidal activity (percentage phytotoxicity).
Where [33] appears, read: post-emergence, 360 h, post-emergence, 250 g/ha, 15 DAA, visual score (100%=total damage; 0%=no damage), read-out: LOLPE POST herbicidal activity (percentage phytotoxicity).
Where [34] appears, read: pre-emergence, 480 h, pre-emergence, 250 g/ha, 20 DAA, visual score (100%=total damage; 0%=no damage), read-out: LOLPE PRE herbicidal activity (percentage phytotoxicity).

Turning to `Cc1cc(-c2ncc(Cl)cn2)cc(C)c1C1C(=O)CC(CC(=O)NCc2cccc(Br)c2)C1=O` (stereo not drawn) [Compound B339], the pest or weed control at 250 g/ha in assay [1] (setting [3]) came out at 100%; in assay [1] (setting [4]) it was 40%; in the assay with Avena fatua (AVEFA) (setting [5]) it was 100%; in the assay on Avena fatua (AVEFA) (setting [6]), 70%; in assay [2] (setting [7]), 100%; in assay [2] (setting [8]) it was 100%. The pest or weed control at 250 g/ha with Lolium perenne (LOLPE) (setting [9]) was 100%; in the assay with Lolium perenne (LOLPE) (setting [10]), 90%.
Turning to `Cc1cc(C)c(C2C(=O)CC(CC(=O)NC(C)(C)c3ccccc3)C2=O)c(C)c1` (stereo not drawn) [Compound B29], the pest or weed control at 250 g/ha is 70% in assay [1] (setting [11]); 30% in assay [1] (setting [12]); 60% in the assay on Avena fatua (AVEFA) (setting [13]); 10% with Avena fatua (AVEFA) (setting [14]); 70% in assay [2] (setting [15]); 80% in assay [2] (setting [16]). Also, the figures for the pest or weed control at 250 g/ha with Lolium perenne (LOLPE) (setting [17]) and with Lolium perenne (LOLPE) (setting [18]) were 70% and 80%, respectively.
Turning to `C#Cc1ccc(CNC(=O)CC2CC(=O)C(c3c(C)cc(C)cc3C)C2=O)cc1` (stereo not drawn) [Compound B34], the pest or weed control at 250 g/ha in assay [1] (setting [11]) is 60%; in assay [1] (setting [12]) it was 70%; in the assay on Avena fatua (AVEFA) (setting [13]) it was 90%; in the assay with Avena fatua (AVEFA) (setting [14]) it was 80%; in assay [2] (setting [15]), 100%; in assay [2] (setting [16]), 100%. Further, the figures for the pest or weed control at 250 g/ha in the assay with Lolium perenne (LOLPE) (setting [17]) and with Lolium perenne (LOLPE) (setting [18]) were 80% and 90%, respectively.
Take `Cc1cc(-c2ncc(F)cn2)cc(C)c1C1C(=O)CC(CC(=O)N(C)C(C)(C)C)C1=O` (stereo not drawn) [Compound B331]: the pest or weed control at 250 g/ha was 90% in assay [1] (setting [19]); 100% in assay [1] (setting [20]); 100% in the assay with Avena fatua (AVEFA) (setting [21]); 90% in the assay on Avena fatua (AVEFA) (setting [22]); 100% in assay [2] (setting [23]); 100% in assay [2] (setting [24]). Besides, the pest or weed control at 250 g/ha in the assay with Lolium perenne (LOLPE) (setting [25]) and in the assay with Lolium perenne (LOLPE) (setting [26]) was 100% in each case.
Take `CCCCCNC(=O)CC1CC(=O)C(c2c(C)cc(C)cc2C)C1=O` (stereo not drawn) [Compound A177]: the pest or weed control at 250 g/ha was 80% in assay [1] (setting [27]); 100% in assay [1] (setting [28]); 80% with Avena fatua (AVEFA) (setting [29]); 60% in the assay on Avena fatua (AVEFA) (setting [30]); 90% in assay [2] (setting [31]); 90% in assay [2] (setting [32]). For the same compound, the pest or weed control at 250 g/ha with Lolium perenne (LOLPE) (setting [33]) worked out at 80%; with Lolium perenne (LOLPE) (setting [34]) it was 100%.
Consider `Cc1cc(C)c(C2C(=O)CC(CC(=O)NC3CC(F)(F)C3)C2=O)c(C)c1` (stereo not drawn) [Compound A185], for which the pest or weed control at 250 g/ha was 80% in assay [1] (setting [27]); 80% in assay [1] (setting [28]); 80% with Avena fatua (AVEFA) (setting [29]); 60% in the assay on Avena fatua (AVEFA) (setting [30]); 70% in assay [2] (setting [31]); 70% in assay [2] (setting [32]). Moreover, the pest or weed control at 250 g/ha in the assay with Lolium perenne (LOLPE) (setting [33]) and in the assay with Lolium perenne (LOLPE) (setting [34]) was 70% in each case.
Consider `CCc1cc(OCC(F)(F)F)cc(C)c1C1C(=O)CC(CC(=O)NC(C)(C)C)C1=O` (stereo not drawn) [Compound B165], for which the pest or weed control at 250 g/ha (in assay [1] (setting [19]); in assay [1] (setting [20]); in the assay on Avena fatua (AVEFA) (setting [21]); in the assay on Avena fatua (AVEFA) (setting [22]); in assay [2] (setting [23]); in assay [2] (setting [24])) was 100% in each case. In addition, the pest or weed control at 250 g/ha in the assay with Lolium perenne (LOLPE) (setting [25]) and in the assay with Lolium perenne (LOLPE) (setting [26]) was 100% throughout.
On to `C#CC(C)(C)NC(=O)CC1CC(=O)C(c2c(C)cc(-c3ccc(F)cn3)cc2C)C1=O` (stereo not drawn) [Compound B388], for which the pest or weed control at 250 g/ha came to 90% in assay [1] (setting [3]); 90% in assay [1] (setting [4]); 100% in the assay with Avena fatua (AVEFA) (setting [5]); 90% in the assay with Avena fatua (AVEFA) (setting [6]); 100% in assay [2] (setting [7]); 100% in assay [2] (setting [8]). For the same compound, the pest or weed control at 250 g/ha in the assay on Lolium perenne (LOLPE) (setting [9]) and in the assay with Lolium perenne (LOLPE) (setting [10]) was 90% each time.
In the case of `COc1ccc(CNC(=O)CC2CC(=O)C(c3c(C)cc(-c4ncc(F)cc4F)cc3C)C2=O)cc1` (stereo not drawn) [Compound B91], the pest or weed control at 250 g/ha in assay [1] (setting [11]) amounted to 100%; in assay [1] (setting [12]), 80%; in the assay on Avena fatua (AVEFA) (setting [13]), 100%; in the assay on Avena fatua (AVEFA) (setting [14]), 70%; in assay [2] (setting [15]) it was 100%; in assay [2] (setting [16]), 80%. Further, the pest or weed control at 250 g/ha in the assay with Lolium perenne (LOLPE) (setting [17]) amounted to 100%; with Lolium perenne (LOLPE) (setting [18]) it was 90%.
